Experimental data: US7615641B2, “Long chain aliphatic alcohol derivatives and methods of making and using same” (Sino Pharmaceuticals Corporation, priority 2004, dated 2009)

CCCCCCCCCCCCCCCCCCCCCCCCCCCCOC(=O)c1cccnc1 [1-octacosanyl nicotinate] showed a melting point of 65 to 70 °C.

Molecule CCCCCCCCCCCCCCCCCCCCCCCCCCCCOC(=O)c1cccnc1.Cl has a melting point of 58 to 60 °C.
